Experiments:
Assay type in all cases: cell-based
[1] = system: Botryotinia fuckeliana (Botrytis cinerea); assay: Botryotinia fuckeliana (Botrytis cinerea) / liquid culture (gray mould); conditions: growth inhibition photometrically 3-4 days after application, read-out: control of Botryotinia fuckeliana
Protocol: (§1) Example B2: Botryotinia fuckeliana (Botrytis cinerea)/Liquid Culture (Gray Mould) Conidia of the fungus from cryogenic storage are directly mixed into nutrient broth (Vogels broth). After placing a (DMSO) solution of test compound into a microtiter plate (96-well format), the nutrient broth containing the fungal spores is added. The test plates are incubated at 24° C. and the inhibition of growth is determined photometrically 3-4 days after application.

[2] = system: Monographella nivalis (Microdochium nivale); assay: Monographella nivalis (Microdochium nivale) / liquid culture (foot rot cereals); conditions: growth inhibition photometrically 4-5 days after application, read-out: control of Monographella nivalis
Protocol: as §1, with “B9: Monographella nivalis (Microdochium nivale)/Liquid” for “B2: Botryotinia fuckeliana (Botrytis cinerea)/Liquid”, “(Foot Rot Cereals)” for “(Gray Mould)”, “(PDB potato dextrose” for “(Vogels”, “4-5” for “3-4”

[3] = system: Mycosphaerella graminicola (Septoria tritici); assay: Mycosphaerella graminicola (Septoria tritici) / liquid culture (Septoria blotch); conditions: Zymoseptoria tritici, growth inhibition photometrically 4-5 days after application, read-out: control of Mycosphaerella graminicola
Protocol: as §1, with “B16: Mycosphaerella graminicola (Septoria tritici)/Liquid” for “B2: Botryotinia fuckeliana (Botrytis cinerea)/Liquid”, “(Septoria Blotch)” for “(Gray Mould)”, “(PDB potato dextrose” for “(Vogels”, “4-5” for “3-4”

SMILES | inhibition of growth at 20 ppm [1] [%] | inhibition of growth at 20 ppm [2] [%] | inhibition of growth at 20 ppm [3] [%]
Cn1cc(C(C)(CNC(=O)c2nnc(-c3ccc(F)cc3F)s2)c2ncccc2Cl)cn1 (centres unmarked) [Compound P-1, N-[2-(3-chloro-2-pyridyl)-2-(1-methylpyrazol-4-yl)propyl]-5-(2,4-difluorophenyl)-1,3,4-thiadiazole-2-carboxamide] | ≥ 80 | ≥ 80 | ≥ 80
Cn1cc(C(CNC(=O)c2cc(-c3ccc(F)cc3F)on2)c2cccc(Cl)n2)cn1 (centres unmarked) [Compound P-13, N-[2-(6-chloro-2-pyridyl)-2-(1-methylpyrazol-4-yl)ethyl]-5-(2,4-difluorophenyl)isoxazole-3-carboxamide] | ≥ 80 | ≥ 80 | ≥ 80
Cn1cc(C(C)(CNC(=O)c2cc(-c3ccc(F)cc3F)on2)c2cc(Cl)ccn2)cn1 (centres unmarked) [Compound P-18, N-[2-(4-chloro-2-pyridyl)-2-(1-methylpyrazol-4-yl)propyl]-5-(2,4-difluorophenyl) isoxazole-3-carboxamide] | – | ≥ 80 | ≥ 80
Cn1cc(C(C)(CNC(=O)c2cc(-c3ccc(F)cc3F)on2)c2cc(O)cc(Cl)n2)cn1 (centres unmarked) [Compound P-38, N-[2-(6-chloro-4-hydroxy-2-pyridyl)-2-(1-methylpyrazol-4-yl)propyl]-5-(2,4-difluorophenyl) isoxazole-3-carboxamide] | ≥ 80 | – | ≥ 80
Cn1cc(C(C)(CNC(=O)c2cc(-c3ccc(F)cc3F)on2)c2cc(C#N)cc(Cl)n2)cn1 (centres unmarked) [Compound P-41, N-[2-(6-chloro-4-cyano-2-pyridyl)-2-(1-methylpyrazol-4-yl)propyl]-5-(2,4-difluorophenyl) isoxazole-3-carboxamide] | ≥ 80 | – | ≥ 80
COc1cc(Cl)nc([C@](C)(CNC(=O)c2cc(-c3ccc(F)cc3F)no2)c2cnn(C)c2)c1 [Compound P-47, N-[(2S)-2-(6-chloro-4-methoxy-2-pyridyl)-2-(1-methylpyrazol-4-yl)propyl]-3-(2,4-difluorophenyl) isoxazole-5-carboxamide] | ≥ 80 | ≥ 80 | ≥ 80
Cn1cc(C(C)(CNC(=O)c2cc(-c3ccc(F)cc3F)on2)c2ccc(N)cn2)cn1 (centres unmarked) [Compound P-58, N-[2-(5-amino-2-pyridyl)-2-(1-methylpyrazol-4-yl)propyl]-5-(2,4-difluorophenyl) isoxazole-3-carboxamide] | – | ≥ 80 | –
Cn1cc(C(C)(CNC(=O)c2cc(-c3ccc(F)cc3F)on2)c2cc(Br)ccn2)cn1 (centres unmarked) [Compound P-66, N-[2-(4-bromo-2-pyridyl)-2-(1-methylpyrazol-4-yl)propyl]-5-(2,4-difluorophenyl) isoxazole-3-carboxamide] | – | – | ≥ 80
COc1cc(C#N)nc(C(C)(CNC(=O)c2cc(-c3ccc(F)cc3F)on2)c2cnn(C)c2)c1 (centres unmarked) [Compound P-67, N-[2-(6-cyano-4-methoxy-2-pyridyl)-2-(1-methylpyrazol-4-yl)propyl]-5-(2,4-difluorophenyl) isoxazole-3-carboxamide] | – | ≥ 80 | ≥ 80
Cc1cc(C(=O)NCC(C)(c2cnn(C)c2)c2cccc(Cl)n2)no1 (centres unmarked) [Compound P-77, N-[2-(6-chloro-2-pyridyl)-2-(1-methylpyrazol-4-yl)propyl]-5-methyl-isoxazole-3-carboxamide] | – | – | ≥ 80
COc1ncc(-c2cccc(C(C)(CNC(=O)c3cc(-c4ccc(F)cc4F)on3)c3cnn(C)c3)n2)c(OC)n1 (centres unmarked) [Compound P-88, 5-(2,4-difluorophenyl)-N-[2-[6-(2,4-dimethoxypyrimidin-5-yl)-2-pyridyl]-2-(1-methylpyrazol-4-yl)propyl]isoxazole-3-carboxamide] | ≥ 80 | ≥ 80 | ≥ 80
Cc1cc(-c2cccc(C(C)(CNC(=O)c3cc(-c4ccc(F)cc4F)on3)c3cnn(C)c3)n2)ccn1 (centres unmarked) [Compound P-89, 5-(2,4-difluorophenyl)-N-[2-(1-methylpyrazol-4-yl)-2-[6-(2-methyl-4-pyridyl)-2-pyridyl]propyl] isoxazole-3-carboxamide] | – | ≥ 80 | ≥ 80
Cc1cncc(-c2cccc(C(C)(CNC(=O)c3cc(-c4ccc(F)cc4F)on3)c3cnn(C)c3)n2)c1 (centres unmarked) [Compound P-91, 5-(2,4-difluorophenyl)-N-[2-(1-methylpyrazol-4-yl)-2-[6-(5-methyl-3-pyridyl)-2-pyridyl]propyl] isoxazole-3-carboxamide] | – | ≥ 80 | ≥ 80
Cc1noc(C)c1-c1cccc(C(C)(CNC(=O)c2cc(-c3ccc(F)cc3F)on2)c2cnn(C)c2)n1 (centres unmarked) [Compound P-94, 5-(2,4-difluorophenyl)-N-[2-[6-(3,5-dimethylisoxazol-4-yl)-2-pyridyl]-2-(1-methylpyrazol-4-yl)propyl]isoxazole-3-carboxamide] | – | ≥ 80 | ≥ 80
Cn1cc(C(C)(CNC(=O)c2cc(-c3ccc(F)cc3F)on2)c2cccc(-c3ccnn3C)n2)cn1 (centres unmarked) [Compound P-95, 5-(2,4-difluorophenyl)-N-[2-(1-methylpyrazol-4-yl)-2-[6-(2-methylpyrazol-3-yl)-2-pyridyl]propyl] isoxazole-3-carboxamide] | – | ≥ 80 | ≥ 80
Cc1ncc(-c2cccc(C(C)(CNC(=O)c3cc(-c4ccc(F)cc4F)on3)c3cnn(C)c3)n2)cc1F (centres unmarked) [Compound P-97, 5-(2,4-difluorophenyl)-N-[2-[6-(5-fluoro-6-methyl-3-pyridyl)-2-pyridyl]-2-(1-methylpyrazol-4-yl)propyl]isoxazole-3-carboxamide] | – | – | ≥ 80
Cc1c(-c2cccc(C(C)(CNC(=O)c3cc(-c4ccc(F)cc4F)on3)c3cnn(C)c3)n2)ccnc1F (centres unmarked) [Compound P-98, 5-(2,4-difluorophenyl)-N-[2-[6-(2-fluoro-3-methyl-4-pyridyl)-2-pyridyl]-2-(1-methylpyrazol-4-yl)propyl]isoxazole-3-carboxamide] | – | – | ≥ 80
COc1cccc(C(C)(CNC(=O)c2cc(-c3ccc(F)cc3OC)on2)c2cnn(C)c2)n1 (centres unmarked) [Compound P-99, 5-(4-fluoro-2-methoxy-phenyl)-N-[2-(6-methoxy-2-pyridyl)-2-(1-methylpyrazol-4-yl)propyl]isoxazole-3-carboxamide] | – | – | ≥ 80
Cn1cc(C(C)(CNC(=O)c2cc(-c3ccc(F)cc3F)on2)c2cccc(C3(C#N)CC3)n2)cn1 (centres unmarked) [Compound P-104, N-[2-[6-(1-cyanocyclopropyl)-2-pyridyl]-2-(1-methylpyrazol-4-yl)propyl]-5-(2,4-difluorophenyl) isoxazole-3-carboxamide] | – | ≥ 80 | ≥ 80
COc1ccc(C(C)(CNC(=O)c2cc(-c3ccc(F)cc3F)on2)c2cnn(C)c2)nc1Br (centres unmarked) [Compound P-109, N-[2-(6-bromo-5-methoxy-2-pyridyl)-2-(1-methylpyrazol-4-yl)propyl]-5-(2,4-difluorophenyl) isoxazole-3-carboxamide] | – | – | ≥ 80
COc1ccc(C(C)=O)nc1C(C)(CNC(=O)c1cc(-c2ccc(F)cc2F)on1)c1cnn(C)c1 (centres unmarked) [Compound P-112] | – | – | ≥ 80

Source: patent publication US20240343717A1, “MICROBIOCIDAL PYRAZOLE DERIVATIVES” (SYNGENTA CROP PROTECTION AG, priority 2021, published 2024)
